Values of other authors as cited in patent US20250161335A1, “Drug and Method for Nucleoside (Acid) Drug Therapy of Limiting Chronic Hepatitis B” (Shanghai Hep Pharmaceutical Co., Ltd., priority 2022, published 2025).

Tested on: HBV
Conditions: patients treated with nucleoside (acid) medicine

Q: Which “inhibition rate on viral DNA” value does the source give for `C[C@H](Cn1cnc2c(N)ncnc21)OCP(=O)(O)O` [tenofovir] here?
A: about 70%
